Experimental data from paper PMC5218480 (PLoS ONE, 2017).

System: MV-4-11 cells
Experiment: Gene expression microarray analysis (Affymetrix PrimeView) and GSEA
Type: cell-based, human
Parameters: RFU PODN (11730768_x_at) / Fold change /veh PODN (11730768_x_at) / RFU LINC00158 (11744669_a_at) / Fold change /veh LINC00158 (11744669_a_at) / RFU DUSP10 (11751237_a_at) / Fold change /veh DUSP10 (11751237_a_at) / RFU ID3 (11757404_x_at) / Fold change /veh ID3 (11757404_x_at) / RFU PLEKHG5 (11737974_s_at) / Fold change /veh PLEKHG5 (11737974_s_at) / RFU LRRC4B (11730491_at) / Fold change /veh LRRC4B (11730491_at) / RFU GIMAP4 (11747438_a_at) / Fold change /veh GIMAP4 (11747438_a_at) / RFU KRT8 (11758183_x_at) / Fold change /veh KRT8 (11758183_x_at) / RFU CNN1 (11734310_a_at) / Fold change /veh CNN1 (11734310_a_at) / RFU VPS37D (11726825_at) / Fold change /veh VPS37D (11726825_at) / RFU C10orf10 (11716522_x_at) / Fold change /veh C10orf10 (11716522_x_at) / RFU KIR2DL2 /// KIR2DL4 /// KIR2DL5A /// KIR2DL5B /// KIR2DS1 /// KIR2DS2 /// KIR2DS3 /// KIR2DS4 /// KIR3DL3 /// KIR3DL3 /// KIR3DS1 (11738374_at) / Fold change /veh KIR2DL2 /// KIR2DL4 /// KIR2DL5A /// KIR2DL5B /// KIR2DS1 /// KIR2DS2 /// KIR2DS3 /// KIR2DS4 /// KIR3DL3 /// KIR3DL3 /// KIR3DS1 (11738374_at) / RFU C1QL1 (11718748_at) / Fold change /veh C1QL1 (11718748_at) / RFU TMPRSS4 (11747572_a_at) / Fold change /veh TMPRSS4 (11747572_a_at) / RFU HAMP (11756126_x_at) / Fold change /veh HAMP (11756126_x_at) / RFU RNFT2 (11725882_a_at) / Fold change /veh RNFT2 (11725882_a_at) / RFU NR4A2 (11747474_a_at) / Fold change /veh NR4A2 (11747474_a_at) / RFU ABCC12 (11746883_a_at) / Fold change /veh ABCC12 (11746883_a_at) / RFU TMEM136 (11760407_x_at) / Fold change /veh TMEM136 (11760407_x_at) / RFU CLDN22 /// WWC2 (11732394_at) / Fold change /veh CLDN22 /// WWC2 (11732394_at) / RFU HLA-DPB1 (11760878_x_at) / Fold change /veh HLA-DPB1 (11760878_x_at) / RFU SPINT1 (11716480_a_at) / Fold change /veh SPINT1 (11716480_a_at) / RFU GAP43 (11754022_s_at) / Fold change /veh GAP43 (11754022_s_at) / RFU A4GNT (11735810_at) / Fold change /veh A4GNT (11735810_at) / RFU PRB3 (11715151_x_at) / Fold change /veh PRB3 (11715151_x_at) / RFU TUBB4B (11761932_at) / Fold change /veh TUBB4B (11761932_at) / RFU CAPN14 (11732068_a_at) / Fold change /veh CAPN14 (11732068_a_at) / RFU TMCC2 (11721928_a_at) / Fold change /veh TMCC2 (11721928_a_at) / RFU IRGQ (11745062_a_at) / Fold change /veh IRGQ (11745062_a_at) / RFU FAM174B (11720279_a_at) / Fold change /veh FAM174B (11720279_a_at) / RFU TMPRSS4 (11748680_a_at) / Fold change /veh TMPRSS4 (11748680_a_at) / RFU FAM212B (11763350_a_at) / Fold change /veh FAM212B (11763350_a_at) / RFU PLEKHG5 (11743358_a_at) / Fold change /veh PLEKHG5 (11743358_a_at) / RFU ZSCAN30 (11745921_a_at) / Fold change /veh ZSCAN30 (11745921_a_at) / RFU CMKLR1 (11741424_a_at) / Fold change /veh CMKLR1 (11741424_a_at) / RFU LOC101060620 /// MAPK8IP1 (11723275_at) / Fold change /veh LOC101060620 /// MAPK8IP1 (11723275_at) / RFU SPTSSB (11747773_x_at) / Fold change /veh SPTSSB (11747773_x_at) / RFU PRSS12 (11739890_at) / Fold change /veh PRSS12 (11739890_at) / RFU BIN1 (11741810_x_at) / Fold change /veh BIN1 (11741810_x_at) / RFU WNT11 (11732464_a_at) / Fold change /veh WNT11 (11732464_a_at) / RFU C10orf10 (11716521_a_at) / Fold change /veh C10orf10 (11716521_a_at) / RFU C5orf56 (11738089_at) / Fold change /veh C5orf56 (11738089_at) / RFU CYB561 (11721691_x_at) / Fold change /veh CYB561 (11721691_x_at) / RFU ANKRD19P (11752326_a_at) / Fold change /veh ANKRD19P (11752326_a_at) / RFU OR2T12 /// OR2T33 /// OR2T8 (11738714_s_at) / Fold change /veh OR2T12 /// OR2T33 /// OR2T8 (11738714_s_at) / RFU VCAN (11748164_a_at) / Fold change /veh VCAN (11748164_a_at) / RFU JSRP1 (11732532_at) / Fold change /veh JSRP1 (11732532_at) / RFU KRTAP10-11 (11738290_x_at) / Fold change /veh KRTAP10-11 (11738290_x_at) / RFU MYO3A (11730013_a_at) / Fold change /veh MYO3A (11730013_a_at) / RFU EBF3 (11725865_a_at) / Fold change /veh EBF3 (11725865_a_at) / RFU CAMK2N1 (11719241_x_at) / Fold change /veh CAMK2N1 (11719241_x_at) / RFU C5orf56 (11738088_a_at) / Fold change /veh C5orf56 (11738088_a_at) / RFU OLFML3 (11715873_a_at) / Fold change /veh OLFML3 (11715873_a_at) / RFU LOC100653217 /// NTM (11731650_a_at) / Fold change /veh LOC100653217 /// NTM (11731650_a_at) / RFU MAPK11 (11762145_a_at) / Fold change /veh MAPK11 (11762145_a_at) / RFU FIZ1 (11724087_x_at) / Fold change /veh FIZ1 (11724087_x_at) / RFU OASL (11726364_x_at) / Fold change /veh OASL (11726364_x_at) / RFU SOX15 (11748057_x_at) / Fold change /veh SOX15 (11748057_x_at) / RFU CD79A (11719716_a_at) / Fold change /veh CD79A (11719716_a_at) / RFU HIST1H1D (11736915_at) / Fold change /veh HIST1H1D (11736915_at) / RFU CASKIN2 (11723855_a_at) / Fold change /veh CASKIN2 (11723855_a_at) / RFU LOC730098 (11760151_x_at) / Fold change /veh LOC730098 (11760151_x_at) / RFU OR4N2 (11742367_at) / Fold change /veh OR4N2 (11742367_at) / RFU PRRT2 (11749266_a_at) / Fold change /veh PRRT2 (11749266_a_at) / RFU SNX32 (11753110_a_at) / Fold change /veh SNX32 (11753110_a_at) / RFU CDHR5 (11726645_a_at) / Fold change /veh CDHR5 (11726645_a_at) / RFU RCAN1 (11760418_a_at) / Fold change /veh RCAN1 (11760418_a_at) / RFU FAM167A (11723789_a_at) / Fold change /veh FAM167A (11723789_a_at) / RFU FAM26E (11764081_at) / Fold change /veh FAM26E (11764081_at) / RFU ISYNA1 (11749810_s_at) / Fold change /veh ISYNA1 (11749810_s_at) / RFU ACY1 (11761880_at) / Fold change /veh ACY1 (11761880_at) / RFU 11764098_at / Fold change /veh 11764098_at / RFU SAMD14 (11745864_x_at) / Fold change /veh SAMD14 (11745864_x_at) / RFU NPB (11741838_a_at) / Fold change /veh NPB (11741838_a_at) / RFU TMPRSS6 (11731388_a_at) / Fold change /veh TMPRSS6 (11731388_a_at) / RFU KRTAP10-2 (11738614_at) / Fold change /veh KRTAP10-2 (11738614_at) / RFU ARHGAP8 /// PRR5-ARHGAP8 (11727945_x_at) / Fold change /veh ARHGAP8 /// PRR5-ARHGAP8 (11727945_x_at) / RFU KRTAP5-7 /// NADSYN1 (11734609_at) / Fold change /veh KRTAP5-7 /// NADSYN1 (11734609_at) / RFU RASL12 (11751679_a_at) / Fold change /veh RASL12 (11751679_a_at) / RFU CDKN2B (11736163_a_at) / Fold change /veh CDKN2B (11736163_a_at) / RFU PRF1 (11729649_at) / Fold change /veh PRF1 (11729649_at) / RFU, ZNF638 /// ZNF638-IT1 / Fold change vs veh, ZNF638 /// ZNF638-IT1 / RFU, PANK3 / Fold change vs veh, PANK3 / RFU, SH3YL1 / Fold change vs veh, SH3YL1 / RFU, ZEB2 / Fold change vs veh, ZEB2 / RFU, NRIP1 / Fold change vs veh, NRIP1 / RFU, PTTG1IP / Fold change vs veh, PTTG1IP / RFU, CAPN2 / Fold change vs veh, CAPN2 / RFU, MED14 / Fold change vs veh, MED14 / RFU, SNORA58 / Fold change vs veh, SNORA58 / RFU, C1orf63 / Fold change vs veh, C1orf63 / RFU, LRRFIP1 / Fold change vs veh, LRRFIP1 / RFU, NDUFAF7 / Fold change vs veh, NDUFAF7 / RFU, SLC12A2 / Fold change vs veh, SLC12A2 / RFU, IBTK / Fold change vs veh, IBTK / RFU, ESF1 / Fold change vs veh, ESF1 / Fold change vs veh, TMEM50B / RFU, TAOK1 / Fold change vs veh, TAOK1 / RFU, ACBD3 / Fold change vs veh, ACBD3 / RFU, TMA16 / Fold change vs veh, TMA16 / RFU, RWDD3 / Fold change vs veh, RWDD3 / RFU, BCAT1 / Fold change vs veh, BCAT1 / RFU, EDEM3 / Fold change vs veh, EDEM3 / RFU, TMEM33 / Fold change vs veh, TMEM33 / RFU, WDR75 / Fold change vs veh, WDR75 / RFU, AHCTF1 / Fold change vs veh, AHCTF1 / RFU, TFRC / Fold change vs veh, TFRC / RFU, ZDHHC17 / Fold change vs veh, ZDHHC17 / RFU, NOM1 / Fold change vs veh, NOM1 / RFU, ARL8B / Fold change vs veh, ARL8B / RFU, ZBTB11 / Fold change vs veh, ZBTB11 / RFU, TAMM41 / Fold change vs veh, TAMM41 / RFU, KIAA1704 /// LOC100996395 / Fold change vs veh, KIAA1704 /// LOC100996395 / RFU, ING1 / Fold change vs veh, ING1 / RFU, TRMT61B / Fold change vs veh, TRMT61B / RFU, FUBP3 / Fold change vs veh, FUBP3 / RFU, TP53 / Fold change vs veh, TP53 / RFU, TNKS2 / Fold change vs veh, TNKS2 / RFU, ZFP14 / Fold change vs veh, ZFP14 / RFU, ACTR2 / Fold change vs veh, ACTR2 / RFU, PPP3R1 / Fold change vs veh, PPP3R1 / RFU, PIK3R1 / Fold change vs veh, PIK3R1 / RFU, HNRNPA1 / Fold change vs veh, HNRNPA1 / RFU, RNF170 / Fold change vs veh, RNF170 / RFU, ZNF28 / Fold change vs veh, ZNF28 / RFU, RNGTT / Fold change vs veh, RNGTT / RFU, OGT / Fold change vs veh, OGT / RFU, BRD1 / Fold change vs veh, BRD1 / RFU, MARS / Fold change vs veh, MARS / RFU, ZNF655 / Fold change vs veh, ZNF655 / RFU, FAHD1 / Fold change vs veh, FAHD1 / RFU, BDP1 / Fold change vs veh, BDP1 / RFU, LRRCC1 / Fold change vs veh, LRRCC1 / RFU, ARID1A / Fold change vs veh, ARID1A / RFU, ZNF146 / Fold change vs veh, ZNF146 / RFU, ZNF330 / Fold change vs veh, ZNF330 / RFU, GPN3 / Fold change vs veh, GPN3 / RFU, C9orf123 / Fold change vs veh, C9orf123 / RFU, N4BP2L2 / Fold change vs veh, N4BP2L2 / RFU, ARFIP1 / Fold change vs veh, ARFIP1 / RFU, FAM179B / Fold change vs veh, FAM179B / RFU, BCL10 / Fold change vs veh, BCL10 / RFU, UHRF1BP1L / Fold change vs veh, UHRF1BP1L / RFU, BET1 / Fold change vs veh, BET1 / RFU, CNOT2 / Fold change vs veh, CNOT2 / RFU, ZNF268 / Fold change vs veh, ZNF268 / Fold change vs veh, ZNF507 / RFU, DGCR2 / Fold change vs veh, DGCR2 / RFU, WDSUB1 / Fold change vs veh, WDSUB1 / Fold change vs veh, HSP90B1 /// MIR3652 / RFU, ADSS / Fold change vs veh, ADSS / RFU, GK / Fold change vs veh, GK / RFU, ZNF148 / Fold change vs veh, ZNF148 / RFU, TAF9 / Fold change vs veh, TAF9 / RFU, SLC1A5 / Fold change vs veh, SLC1A5 / RFU, SLMO2 / Fold change vs veh, SLMO2 / RFU, ABCC4 / Fold change vs veh, ABCC4 / RFU, LOC101060439 /// RAP1B / Fold change vs veh, LOC101060439 /// RAP1B / RFU, RFX7 / Fold change vs veh, RFX7 / RFU, GTPBP10 / Fold change vs veh, GTPBP10 / RFU, CNEP1R1 / Fold change vs veh, CNEP1R1 / RFU, BIVM-ERCC5 /// ERCC5 / Fold change vs veh, BIVM-ERCC5 /// ERCC5 / RFU, ILF3 / Fold change vs veh, ILF3 / RFU 11762660_at / Fold change /veh 11762660_at / RFU VCAN (11757783_s_at) / Fold change /veh VCAN (11757783_s_at) / RFU DDX43 (11728927_at) / Fold change /veh DDX43 (11728927_at) / RFU KRT8 (11758188_x_at) / Fold change /veh KRT8 (11758188_x_at) / RFU NKD1 (11759106_at) / Fold change /veh NKD1 (11759106_at) / RFU SRD5A1 (11742802_a_at) / Fold change /veh SRD5A1 (11742802_a_at) / RFU TPSAB1 /// TPSB2 (11721975_s_at) / Fold change /veh TPSAB1 /// TPSB2 (11721975_s_at) / RFU GSTM3 (11746129_a_at) / Fold change /veh GSTM3 (11746129_a_at) / RFU IL23R (11737362_x_at) / Fold change /veh IL23R (11737362_x_at) / RFU TMEM51 (11727254_a_at) / Fold change /veh TMEM51 (11727254_a_at) / RFU PIWIL2 (11732686_x_at) / Fold change /veh PIWIL2 (11732686_x_at) / RFU ORM1 (11744905_x_at) / Fold change /veh ORM1 (11744905_x_at) / RFU CCDC152 (11743942_at) / Fold change /veh CCDC152 (11743942_at) / RFU ECM1 (11717891_a_at) / Fold change /veh ECM1 (11717891_a_at) / RFU IL23R (11748794_a_at) / Fold change /veh IL23R (11748794_a_at) / RFU TNFAIP8L3 (11732012_x_at) / Fold change /veh TNFAIP8L3 (11732012_x_at) / RFU MBOAT4 (11741988_at) / Fold change /veh MBOAT4 (11741988_at) / RFU 11764193_at / Fold change /veh 11764193_at / RFU TMEM53 (11763286_at) / Fold change /veh TMEM53 (11763286_at) / RFU MAGEB2 (11727129_at) / Fold change /veh MAGEB2 (11727129_at) / RFU TMEM200A (11744735_a_at) / Fold change /veh TMEM200A (11744735_a_at) / RFU CCDC152 (11751479_a_at) / Fold change /veh CCDC152 (11751479_a_at) / RFU FAM211A (11726209_a_at) / Fold change /veh FAM211A (11726209_a_at) / RFU RGS16 (11746705_a_at) / Fold change /veh RGS16 (11746705_a_at) / RFU VCAN (11755009_s_at) / Fold change /veh VCAN (11755009_s_at) / RFU RHOB (11743442_s_at) / Fold change /veh RHOB (11743442_s_at) / RFU RGS16 (11720943_a_at) / Fold change /veh RGS16 (11720943_a_at) / RFU RGS16 (11720944_at) / Fold change /veh RGS16 (11720944_at) / RFU, VPS4B / Fold change vs veh, VPS4B / RFU, CREB1 / Fold change vs veh, CREB1 / RFU, DNAJC13 / Fold change vs veh, DNAJC13 / RFU, GNAQ / Fold change vs veh, GNAQ / RFU, CDK5R1 / Fold change vs veh, CDK5R1 / RFU, ZRANB3 / Fold change vs veh, ZRANB3 / RFU, CUL4A / Fold change vs veh, CUL4A / RFU, CCNY / Fold change vs veh, CCNY / RFU, UFL1 / Fold change vs veh, UFL1 / RFU, COG3 / Fold change vs veh, COG3 / RFU, DIAPH2 / Fold change vs veh, DIAPH2 / RFU, SKA2 / Fold change vs veh, SKA2 / RFU, AFF3 / Fold change vs veh, AFF3 / RFU, LMF1 / Fold change vs veh, LMF1 / RFU, IPO11 / Fold change vs veh, IPO11 / RFU, DFFB / Fold change vs veh, DFFB / RFU, FOXP1 / Fold change vs veh, FOXP1 / RFU, CARD8 / Fold change vs veh, CARD8 / RFU, STRN3 / Fold change vs veh, STRN3 / RFU, ADK / Fold change vs veh, ADK / RFU, RASSF2 / Fold change vs veh, RASSF2 / RFU, WIPF1 / Fold change vs veh, WIPF1 / RFU, LARP1B / Fold change vs veh, LARP1B / RFU, RASA1 / Fold change vs veh, RASA1 / RFU, RB1 / Fold change vs veh, RB1 / RFU, PPFIA1 / Fold change vs veh, PPFIA1 / RFU, MAT2A / Fold change vs veh, MAT2A / RFU, CCT5 / Fold change vs veh, CCT5 / RFU, WDR92 / Fold change vs veh, WDR92 / RFU, CUX1 / Fold change vs veh, CUX1 / RFU, TTC7A / Fold change vs veh, TTC7A / RFU, TMEM135 / Fold change vs veh, TMEM135 / RFU, DEPTOR / Fold change vs veh, DEPTOR / RFU, CPM / Fold change vs veh, CPM / RFU, DNAJB6 / Fold change vs veh, DNAJB6 / RFU, CACNA2D3 / Fold change vs veh, CACNA2D3 / RFU, DTX4 / Fold change vs veh, DTX4 / RFU, TFCP2 / Fold change vs veh, TFCP2 / RFU, GMCL1 /// GMCL1P1 / Fold change vs veh, GMCL1 /// GMCL1P1 / RFU, AEBP2 / Fold change vs veh, AEBP2 / RFU, SNHG1 /// SNORD22 /// SNORD25 /// SNORD26 /// SNORD27 /// SNORD28 /// SNORD29 /// SNORD31 / Fold change vs veh, SNHG1 /// SNORD22 /// SNORD25 /// SNORD26 /// SNORD27 /// SNORD28 /// SNORD29 /// SNORD31 / Fold change (Aza/veh), C12orf56 (ProbeSet 11735607_a_at) / Fold change (ACY-1035/veh), C12orf56 (ProbeSet 11735607_a_at) / Fold change (Aza/veh), FGFR1OP (ProbeSet 11751329_s_at) / Fold change (ACY-1035/veh), FGFR1OP (ProbeSet 11751329_s_at) / Fold change (Aza/veh), VPS36 (ProbeSet 11739960_a_at) / Fold change (ACY-1035/veh), VPS36 (ProbeSet 11739960_a_at) / RFU SYPL1 (11715823_x_at) / Fold change /veh SYPL1 (11715823_x_at) / RFU IGFBP7 (11715501_s_at) / Fold change /veh IGFBP7 (11715501_s_at) / RFU REEP3 (11722064_at) / Fold change /veh REEP3 (11722064_at) / RFU IGLL1 (11728026_x_at) / Fold change /veh IGLL1 (11728026_x_at): dose or concentration left out as unconfirmed
Settings: ProbeSet 11758779_at; LIST B

Structure (SMILES): Nc1ccc(-c2cccs2)cc1NC(=O)c1ccc2c(c1)cc(C1CC1)n2CCN1CCOCC1 [ACY-1035]
- Fold change vs veh, TMEM50B: 0.95
